Like-named read-outs stand apart in the source and are kept apart here.
Key:
MDA-MB-231 cells = assay: Cell Titer-Glo Luminescent Cell Viability assay, breast cancer cells; assay type: cell-based, Human; settings: half-maximal inhibition at 24 h
Method: (§1) Human breast cancer cells MDA-MB-231 and colorectal cancer cells HT29, were maintained in DMEM medium (Invitrogen, Cergy Pontoise, France). Human lung cancer cells NCI-H460-Luc2 (Caliper Life Sciences, US) (NSCLC) were maintained in RPMI 1640 (Hyclone Thermo Scientific, MA United States). All media were supplemented with antibiotics (penicillin 50.00 U/ml; streptomycin […]) (Invitrogen, Cergy Pontoise, France) and 10.00% fetal bovine serum (FBS, Biowest, Nouaille, France).
Cells were seeded in 96-well plates at a density of 5,000 cells/well. […] Control culture cells were treated with 0.10% DMSO.
(§2) The effect of the test compounds on cell viability was determined using a Cell Titer-Glo Luminescent Cell Viability assay (Promega Corporation, Madison, USA), based on quantification of ATP, which signals the presence of metabolically active cells. Luminescent signal was measured using GLOMAX Luminometer system. The data were presented as proportional viability (%) by comparing the treated group with the untreated cells, the viability of which is assumed to be 100%.
(§3) Inhibition rates ranged between 50.00 and 98.00% were recorded for all compounds at 100.00 μM concentration. The IC50 is the concentration at which half-maximal inhibition occurs at 24 h. Approximate IC50 value of 100.00 μM was obtained after 24.00 hours.
(§4) Exponentially growing MDA-MB-231, NCI-H460-Luc2 and HT29 cells were treated with vehicle (0.10% DMSO) and the indicated concentrations of investigated compounds. Viable cells were assayed as described in Materials and Methods. Exposure times of 24.00 and 48.00 hours were applied. All experiments were repeated at least three times.

HT29 cells = assay: Cell Titer-Glo Luminescent Cell Viability assay, colorectal cancer cells; assay type: cell-based, Human; settings: death of 50% of the cells, half-maximal inhibition at 24 h, read-out: IC50 HT29 Colon Cancer
Method: as §1
(§5) Cells were seeded in 96-well plates at a density of 5,000 cells/well. After 24.00 hours of seeding, resultant cells' arrays were treated for 24.00-48.00 hours with increasing concentrations of the test compounds (5.00-100.00 μM), in triplicates. Control culture cells were treated with 0.10% DMSO.
as §2
as §3, with “The effects of investigated compounds at concentrations 5.00-100.00 μM on MDA-MB-231, NCI-H460-Luc2 and HT29 cells were investigated after 24.00 and 48.00 hours exposures. […] Inhibition” for “Inhibition”
as §4

NCI-H460-Luc2 cells = assay: Cell Titer-Glo Luminescent Cell Viability assay, lung cancer cells; assay type: cell-based, Human; settings: death of 50% of the cells, half-maximal inhibition at 24 h
Method: as §1, §5, §2
as §3, with “The effects of investigated compounds at concentrations 5.00-100.00 μM on MDA-MB-231, NCI-H460-Luc2 and HT29 cells were investigated after 24.00 and 48.00 hours exposures. […] Inhibition” for “Inhibition”
as §4

melting point | SMILES | IC50 (MDA-MB-231 cells; Homo sapiens, MDA-MB-231) | IC50 (HT29 cells; Homo sapiens, HT-29) | IC50 (NCI-H460-Luc2 cells; Homo sapiens) | IC50 (MDA-MB-231 cells) | IC50 (HT29 cells) | IC50 (NCI-H460-Luc2 cells)
265 °C | Cc1[nH]c(=O)c(C#N)c(C)c1N=Nc1cccc(C(F)(F)F)c1 [Ib, 3-Cyano-4,6-dimethyl-5-(3′-trifluoromethylphenylazo)-pyridine-2(1H)-one] | 270 µM | – | – | – | – | –
272 °C | Cc1[nH]c(=O)c(C#N)c(C)c1N=Nc1ccc(F)cc1 [Ic, 3-Cyano-4,6-dimethyl-5-(4′-fluorophenylazo)-pyridine-2(1H)-one] | 216 µM | – | – | – | – | –
252 °C | Cc1c(N=Nc2ccc(F)cc2)c(-c2ccccc2)[nH]c(=O)c1C#N [If, 3-Cyano-4-methyl-6-phenyl-5-(4′-fluorophenylazo)-pyridine-2(1H)-one] | 75.4 µM | 93.9 µM | 30 µM | – | – | –
– | Cc1[nH]c(=O)c(C#N)c(C)c1N=Nc1ccc([N+](=O)[O-])cc1 [Compound Ig, 3-Cyano-4,6-dimethyl-5-(4′-nitrorthenylazo)-pyridine-2(1H)-one] | – | – | – | 72.4 µM | 39 µM | 29.8 µM
257 °C | Cc1[nH]c(=O)c(C#N)c(C)c1N=Nc1ccccc1F [Ia, 3-Cyano-4,6-dimethyl-5-(2′-fluorophenylazo)-pyridine-2(1H)-one] | 483 µM | – | – | – | – | –
237 °C | Cc1c(N=Nc2cccc(C(F)(F)F)c2)c(-c2ccccc2)[nH]c(=O)c1C#N [Ie, 3-Cyano-4-methyl-6-phenyl-5-(3′-trifluoromethylphenylazo)-pyridine-2(1H)-one] | 90.5 µM | 64.5 µM | 35.9 µM | – | – | –
– | Cc1c(N=Nc2ccc([N+](=O)[O-])cc2)c(-c2ccccc2)[nH]c(=O)c1C#N [Ih, 3-Cyano-4-methyl-6-phenyl-5-(4′-nitronthenylazo)-pyridine-2(1H)-one] | – | – | – | 172 µM | 29.9 µM | 30.7 µM
225 °C | Cc1c(N=Nc2ccccc2F)c(-c2ccccc2)[nH]c(=O)c1C#N [Id, 3-Cyano-4-methyl-6-phenyl-5-(2′-fluorophenylazo)-pyridine-2(1H)-one] | – | – | – | – | – | –

Source: US9051271B2, “Substituted pyridine derivatives useful in the treatment of cancer” (United Arab Emirates University, priority 2012, dated 2015)
